Drawing on PubChem BioAssay (NCI), this text covers TGI and GI50 for 26 compounds.

Holding throughout (assay): DTP human tumour cell line panel, 48 h
Assay [1] has as its system ACHN renal.
Assay [2] concerns HCT-116 colon.
Assay [3] relates to MCF7 breast.
Assay [4] relates to MDA-N.
Assay [5] has as its system NCI-H226 lung.
Assay [6] concerns NCI-H522 lung.
Assay [7] has as its system OVCAR-4 ovarian.
Assay [8] relates to RPMI-8226 leukemia.
Assay [9] has as its system SK-MEL-2 melanoma.
In assay [10] the test system is U251 CNS.
Assay [11] concerns UO-31 renal.

As a reminder, the TGI is the concentration giving total growth inhibition. A low value points to greater sensitivity of the cells. A word on the GI50: it is the concentration that inhibits growth by half.

Each structure is given as a SMILES string.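 Tested at 5 concentrations; 48 h exposure; 96-well plates; endpoints linearly interpolated, else capped at highest concentration. GI50 is the concentration that inhibits growth by half. TGI: concentration producing complete growth inhibition.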

Take `C=C1c2nc3ccccc3n2C=C(c2ccc(Cl)cc2)N1c1ccc(OC)cc1`: the total growth inhibition concentration (TGI) turned out to be 13.5 µM in assay [1]; 21.6 µM in assay [2]; 31.8 µM in assay [3]; 45.7 µM in [4]; 15.6 µM in assay [5]; 18.5 µM in assay [6]. Besides, the TGI in assay [7] was 46.2 µM; in [8], over 100 µM; in [9] it was 66.5 µM; in assay [10] it was 25.4 µM; in [11], 19.4 µM.
Consider `C[C@]12CC[C@@H]3c4cc(I)c(O)cc4CC[C@H]3[C@@H]1CC[C@@H]2O`, for which the TGI was 21 µM in assay [1]; 16.5 µM in [2]; 21.1 µM in assay [3]; 5.77 µM in assay [4]; 33.4 µM in assay [5]; 17.8 µM in assay [6]. For the same compound, the TGI in assay [7] was determined as 39.3 µM; in [8], 37.7 µM; in assay [9], 13.7 µM; in assay [10] it was 16.8 µM; in [11], 17.6 µM. The GI50 in assay [2] is 5.01 µM.
`COC(=O)C1(Cc2ccc3c(c2)CCC3)Cc2ccccc2C1`: the TGI was over 100 µM in assay [1]; over 100 µM in assay [2]; over 100 µM in assay [3]; over 100 µM in assay [4]; over 100 µM in assay [5]; 77.1 µM in assay [6]. Besides, the TGI in assay [7] is 62.8 µM; in assay [8], 54.6 µM; in assay [9], 72 µM; in assay [10] it was over 100 µM; in [11], over 100 µM.
On to `CNC(=O)CCCNC(=O)CCCC(=O)N(C)C`, for which the TGI in [1], in assay [2], in assay [3], in assay [4], in assay [5] and in assay [6] was over 100 µM in each case. For the same compound, the TGI in [8], in [9], in assay [10] and in assay [11] was over 100 µM throughout.
As to `CC(C)OC(=O)OCSc1ccccc1N=Cc1cccc([N+](=O)[O-])c1`, the TGI in assay [1], in assay [2], in assay [3], in assay [4], in assay [5] and in [6] was over 10 µM each time. Besides, the TGI in [7], in assay [8], in [9], in assay [10] and in [11] was over 10 µM in each case.
`[O-]/[N+](=C\c1ccccc1OC(=S)S)c1ccc(Cl)cc1`: the TGI in assay [1] was over 100 µM; in [2], 72.7 µM; in assay [3], 64.8 µM; in [4], over 100 µM; in [5], over 100 µM; in [6] it was 52.8 µM. Further, the TGI in assay [7] is 37 µM; in assay [8], over 100 µM; in assay [9], over 100 µM; in assay [10], over 100 µM; in assay [11] it was 76.6 µM.
For the compound `COc1cc(/C=C/C=C2\CC/C(=C\C=C\c3ccc(O)c(OC)c3)C2=O)ccc1O`, the TGI in [1] was over 100 µM; in assay [2], over 100 µM; in [3], over 100 µM; in [4], over 100 µM; in assay [5], over 100 µM; in assay [6] it was 25.9 µM. For the same compound, the concentration for total growth inhibition (TGI) in [7], in assay [8], in assay [9], in [10] and in assay [11] was over 100 µM throughout.
Consider `Oc1[nH]c2ccccc2c1N=NC(=S)Nc1ccc(Cl)cc1`, for which the TGI in assay [1] was over 100 µM; in assay [2], over 100 µM; in assay [3], over 100 µM; in assay [4], over 100 µM; in assay [5], 86.4 µM; in [6], over 100 µM. Also, the TGI in assay [7], in assay [8], in assay [9], in assay [10] and in assay [11] was over 100 µM throughout.
Consider `S=c1cc(-c2ccc3c(c2)OCO3)s[nH]1`, for which the TGI in assay [1] was over 100 µM; in [2], over 100 µM; in assay [3], over 100 µM; in assay [4] it was over 100 µM; in assay [5], over 100 µM; in assay [6], 54.6 µM. The TGI in [7], in [8], in [9], in assay [10] and in [11] was over 100 µM each time.
Turning to `C\C(=N/N=C1/C(=C\N(C)C)C(=O)NC(=O)N1C)c1ccc(Cl)cc1`, the concentration for total growth inhibition (TGI) in [1], in assay [2], in [3], in assay [4], in [5] and in assay [6] was over 100 µM throughout. Also, the TGI in assay [7], in assay [8], in assay [9], in assay [10] and in assay [11] was over 100 µM each time.
Turning to `CC(=O)OC1CCC2C3CCc4c(C)ccc(OS(=O)(=O)c5ccccc5)c4C3CCC12C` (stereo not drawn), the TGI is over 100 µM in assay [1]; 48.3 µM in [2]; over 100 µM in assay [3]; over 100 µM in assay [4]; over 100 µM in assay [5]; over 100 µM in assay [6]. For the same compound, the TGI in assay [7] was 88.4 µM; in assay [8], over 100 µM; in assay [9], over 100 µM; in assay [10], over 100 µM; in assay [11], 50.1 µM.
Regarding `COC(=O)[C@H](Cc1ccccc1)NC(=O)CCCCCCC(=O)NO`, the TGI in [1] is over 100 µM; in assay [2] it was 27 µM; in assay [3], over 100 µM; in assay [4], 56.6 µM; in assay [5], over 100 µM; in [6], 30.6 µM. The TGI is over 100 µM in [7]; over 100 µM in assay [8]; 23.8 µM in assay [9]; 87.5 µM in [10]; over 100 µM in assay [11].
On to `C[n+]1c(-c2ccc(/C=C/C=N\NC(=O)c3ccc(C(=O)N/N=C\C=C\c4ccc(-c5cn6ccccc6[n+]5C)cc4)cc3)cc2)cn2ccccc21`, for which the TGI in assay [1], in [2], in assay [3], in assay [4], in assay [5] and in assay [6] was over 100 µM in each case. For the same compound, the TGI was over 100 µM in assay [7]; over 84.6 µM in [8]; over 100 µM in assay [9]; over 100 µM in assay [10]; over 100 µM in assay [11].
Regarding `COc1ccc(N(C(=O)Nc2ccc(Cl)c(Cl)c2)C2c3cccn3C(=O)N2c2ccc(Cl)c(Cl)c2)cc1` (stereo not drawn), the TGI in assay [1], in assay [2], in [3], in assay [4], in assay [5] and in assay [7] was over 100 µM in each case. Also, the concentration for total growth inhibition (TGI) in [8], in [9], in assay [10] and in [11] was over 100 µM each time.
For `NC(=O)N/N=C1\CC2C3CC4C2C4C13` (stereo not drawn), the TGI in assay [1], in assay [2], in [3], in [4], in assay [5] and in assay [6] was over 100 µM throughout. The TGI in assay [7], in assay [8], in assay [9], in [10] and in assay [11] was over 100 µM in each case.
As to `N#Cc1nc(NC(=O)c2ccccc2C(=O)O)c(C#N)[nH]1`, the TGI in assay [1], in assay [2], in assay [3], in assay [4], in [5] and in assay [6] was over 100 µM throughout. The total growth inhibition concentration (TGI) in assay [8], in assay [9], in [10] and in [11] was over 100 µM in each case.
Turning to `CO[C@@H]1O[C@H](C(=O)c2ccccc2)[C@H]2OC(C)(C)O[C@@H]12`, the TGI in assay [2], in [3], in assay [4], in assay [5], in assay [6] and in [7] was over 100 µM throughout. The TGI in assay [8], in assay [9], in assay [10] and in assay [11] was over 100 µM each time.
As for `CCOC(=O)C#Cc1ccccc1`, the total growth inhibition concentration (TGI) in [1] was over 100 µM; in assay [2], 17.7 µM; in assay [3], 75.2 µM; in assay [4], 45 µM; in assay [5], over 100 µM; in assay [7], 11.7 µM. In addition, the TGI in assay [8] turned out to be 35.2 µM; in assay [9], 5.86 µM; in [10], 25.9 µM; in [11] it was 2.11 µM.
Consider `O=c1cc(-c2ccccc2)oc2c(-c3cc(Cl)cc4c(=O)cc(-c5ccccc5)oc34)cc(Cl)cc12`, for which the TGI is over 100 µM in assay [1]; over 100 µM in [3]; over 100 µM in [4]; 83 µM in assay [5]; 55.3 µM in [6]; over 100 µM in [7]. The TGI is over 100 µM in [8], over 100 µM in assay [9], over 100 µM in assay [10] and 60.4 µM in [11].
Take `CCOP(=O)(/C=C\n1ccc(N)nc1=O)OCC`: the TGI in [1], in assay [2], in assay [3], in assay [4], in assay [5] and in assay [6] was over 100 µM in each case. The TGI in [7], in assay [8], in [9] and in [10] was over 100 µM throughout.
On to `O=C(N/N=C/c1ccc(Br)cc1)N/N=C/c1ccc(Br)cc1`, for which the TGI is 20.8 µM in assay [1]; over 100 µM in [2]; over 100 µM in assay [3]; 37.5 µM in assay [4]; 22.9 µM in [5]; 5.11 µM in assay [7]. Further, the TGI is 40.1 µM in [8], over 100 µM in [9], 18.5 µM in assay [10] and 30.5 µM in assay [11].
Regarding `CC1(C)[C@H]2CC[C@@]13C(=O)N1C(=O)O[C@@H]([C@H]1Cl)C(Cl)(COCc1ccccc1)C(=O)OCCO[C@H]3C2` (stereo partly drawn), the TGI in assay [1], in [2], in assay [3], in assay [4], in [6] and in [7] was over 100 µM throughout. For the same compound, the TGI in assay [8], in assay [9], in assay [10] and in assay [11] was over 100 µM in each case.
Take `CCCCCCCCCc1nn2c(Cc3ccccc3)nnc2s1`: the TGI in [1] worked out at 40 µM; in [2] it was 31.9 µM; in assay [3] it was 73.6 µM; in assay [4] it was 38.7 µM; in assay [6] it was 27 µM; in assay [7], 54.6 µM. Moreover, the concentration for total growth inhibition (TGI) in assay [8] was found to be 77.2 µM; in assay [9], 39.3 µM; in assay [10], 36.6 µM; in assay [11] it was 25.8 µM.
`C1=C\SS/C=C\SS/1`: the TGI in assay [1] is over 100 µM; in assay [2] it was over 100 µM; in assay [3] it was 36.2 µM; in [4] it was over 100 µM; in assay [5] it was over 100 µM; in assay [7] it was over 100 µM. Moreover, the TGI in [8] was 71.8 µM; in [9], over 100 µM; in assay [10], over 100 µM; in assay [11], over 100 µM.
Turning to `CC(=O)c1cnc2oc3ccc(O)cc3c2c1-c1ccccc1`, the TGI in [1] is over 100 µM; in assay [2] it was over 100 µM; in assay [3], over 100 µM; in assay [4], over 100 µM; in assay [5], over 100 µM; in assay [7], 36.6 µM. Also, the concentration for total growth inhibition (TGI) in assay [8], in assay [9] and in [10] was over 100 µM in each case.
With `C[C@H]1SC(c2ccc(Cl)cc2Cl)N(NC(=O)c2ccncc2)C1=O` (stereo partly drawn), the TGI in assay [1] is 90.7 µM; in assay [2] it was 60.4 µM; in [3], over 100 µM; in assay [4] it was 57.5 µM; in assay [5], 76.6 µM; in [6] it was 60.5 µM. The TGI in assay [8] is over 100 µM; in [9], 58.3 µM; in assay [10], over 100 µM; in assay [11], 96.1 µM.
